Results taken from US9695155B2, “Herbicidal substituted pyrimidinyloxy benzene compounds” (E. I. DU PONT DE NEMOURS AND COMPANY, priority 2013, dated 2017).

Key:
green foxtail = assay: Test D preemergence; format: in vivo, Setaria viridis; conditions: Setaria viridis, pre-emergence
Excerpt: (§1) Seeds of plant species selected from bluegrass (annual bluegrass, Poa annua), blackgrass (Alopecurus myosuroides), canarygrass (littleseed canarygrass, Phalaris minor), chickweed (common chickweed, Stellaria media), galium (catchweed bedstraw, Galium aparine), bromegrass, downy (downy bromegrass, Bromus tectorum), field poppy (Papaver rhoeas), field violet (Viola arvensis), green foxtail (Setaria viridis), deadnettle (henbit deadnettle, Lamium amplexicaule), Italian ryegrass (Lolium multiflorum), kochia (Kochia scoparia), lambsquarters (Chenopodium album), oilseed rape (Brassica napus), pigweed (Amaranthus retroflexus), chamomile (scentless chamomile, Matricaria inodora), Russian thistle (Salsola kali), speedwell (bird's-eye speedwell, Veronica persica), spring barley (Hordeum vulgare), spring wheat (Triticum aestivum), wild buckwheat (Polygonum convolvulus), wild mustard (Sinapis arvensis), wild oat (Avena fatua), wild radish (Raphanus raphanistrum), windgrass (Apera spica-venti), winter barley (Hordeum vulgare), and winter wheat (Triticum aestivum) were planted into a silt loam soil and treated preemergence with test chemicals formulated in a non-phytotoxic solvent mixture which included a surfactant.
(§2) At the same time, these species were planted in pots containing Redi-Earth® planting medium (Scotts Company, 14111 Scottslawn Road, Marysville, Ohio 43041) comprising spaghnum peat moss, vermiculite, wetting agent and starter nutrients and treated with postemergence applications of the test chemicals formulated in the same manner. Plants ranged in height from 2 to 18 cm (1- to 4-leaf stage). Treated plants and controls were maintained in a controlled growth environment for 7 to 21 days after which time all species were compared to controls and visually evaluated. Plant response ratings, summarized in Table D, are based on a scale of 0 to 100 where 0 is no effect and 100 is complete control. A dash (-) response means no test result.

chickweed = assay: Test F preemergence; format: in vivo, Stellaria media; conditions: 21 days, scale 0 to 100
Outline: (§3)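 Visual ratings from 0 (no effect) to 100 (complete control), scored against untreated controls after 21 days in the greenhouse. Test chemicals, formulated in a non-phytotoxic solvent blend with surfactant, were applied preemergence to seeds planted in loam soil mixed with sand.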

dayflower = assay: Test F preemergence; format: in vivo, Commelina virginica; conditions: 21 days, scale 0 to 100
Excerpt: (§4) Seeds of plant species selected from bermudagrass (Cynodon dactylon), surinam grass (Brachiaria decumbens), large (Lg) crabgrass (Digitaria sanguinalis), crabgrass, naked (naked crabgrass, Digitaria nuda), foxtail, green (green foxtail, Setaria viridis), johnsongrass (Sorghum halepense), kochia (Kochia scoparia), morningglory (pitted morningglory, Ipomoea lacunosa), nutsedge, purple (purple nutsedge, Cyperus rotundus), ragweed (common ragweed, Ambrosia elatior), mustard, black (black mustard, Brassica nigra), guineagrass (Panicum maximum), dallisgrass (Paspalum dilatatum), barnyardgrass (Echinochloa crus-galli), sandbur (southern sandbur, Cenchrus echinatus), sowthistle (common sowthistle, Sonchus oleraceous), Italian ryegrass (Lolium multiflorum), signalgrass (broadleaf signalgrass, Brachiaria platyphylla), dayflower (Virginia (VA) dayflower, Commelina virginica), bluegrass (annual bluegrass, Poa annua), quackgrass (Elytrigia repens), mallow (common mallow, Malva sylvestris), buckwheat, wild (wild buckwheat, Polygonum convolvulus), leafy spurge (Euphorbia esula), chickweed (common chickweed, Stellaria media), wild poinsettia (Euphorbia heterophylla), and pigweed (Amaranthus retroflexus) were planted into a blend of loam soil and sand and treated preemergence with test chemicals formulated in a non-phytotoxic solvent mixture which included a surfactant.
(§5) Treated plants and controls were maintained in a greenhouse for 21 days, after which time all species were compared to controls and visually evaluated. Plant response ratings, summarized in Table F, are based on a scale of 0 to 100 where 0 is no effect and 100 is complete control. A dash (-) response means no test result.

lambsquarters = assay: Test D postemergence; format: in vivo, Chenopodium album; conditions: Chenopodium album, post-emergence
Outline: (§6)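 Plant response is a visual score from 0 (no effect) to 100 (complete control) relative to controls. Plants were kept in a controlled growth environment for 7 to 21 days after spraying. Preemergence treatments went onto silt loam soil; postemergence ones onto 1- to 4-leaf seedlings.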

canarygrass = assay: Test D preemergence; format: in vivo, Phalaris minor; conditions: Phalaris minor, pre-emergence
Outline: as §6

chamomile = assay: Test D postemergence; format: in vivo, Matricaria inodora; conditions: Tripleurospermum inodorum, post-emergence
Outline: as §6

ragweed = assay: Test F preemergence; format: in vivo, Ambrosia elatior; conditions: 21 days, scale 0 to 100
Excerpt: as §4, §5

Italian ryegrass = assay: Test F preemergence; format: in vivo, Lolium multiflorum; conditions: 21 days, scale 0 to 100
Outline: as §3

wild poinsettia = assay: Test F preemergence; format: in vivo, Euphorbia heterophylla; conditions: 21 days, scale 0 to 100
Outline: as §3

leafy spurge = assay: Test F preemergence; format: in vivo, Euphorbia esula; conditions: 21 days, scale 0 to 100
Outline: as §3

wild radish = assay: Test D postemergence; format: in vivo, Raphanus raphanistrum; conditions: Raphanus raphanistrum, post-emergence
Outline: as §6

blackgrass [1] = assay: Test D preemergence; format: in vivo, Alopecurus myosuroides; conditions: Alopecurus myosuroides, pre-emergence
Excerpt: as §1, §2

field violet = assay: Test D postemergence; format: in vivo, Viola arvensis; conditions: Viola arvensis, post-emergence, scale 0 to 100 (0 no effect, 100 complete control), read-out: Plant response rating, Field Violet
Excerpt: as §1, §2

nutsedge, purple = assay: Test F preemergence; format: in vivo, Cyperus rotundus; conditions: 21 days, scale 0 to 100
Outline: as §3

blackgrass [2] = assay: Test D postemergence; format: in vivo, Alopecurus myosuroides; conditions: Alopecurus myosuroides, post-emergence, Postemergence, scale 0 to 100 (0 no effect, 100 complete control), read-out: Plant response rating, Blackgrass
Outline: as §6

## N#Cc1cccc(Oc2ncc(Cl)cn2)c1-n1cc(OCC(F)(F)F)cn1 [Compound 274, 3-[(5-chloro-2-pyrimidinyl)oxy]-2-[4-(2,2,2-trifluoroethoxy)-1H-pyrazol-1-yl]benzonitrile]
Green foxtail; 16 g ai/ha, scale 0 (no effect) to 100 (complete control), read-out: Plant response rating, Foxtail, Green
  pest or weed control at 16 g/ha: 15%
Green foxtail; 31 g ai/ha, scale 0-100, read-out: Plant response rating, Foxtail, Green
  pest or weed control at 31 g/ha: 75%
Green foxtail; 62 g ai/ha, scale 0-100, read-out: Plant response rating, Foxtail, Green
  pest or weed control at 62 g/ha: 100%
Green foxtail; 125 g ai/ha, scale 0-100, read-out: Plant response rating, Foxtail, Green
  pest or weed control at 125 g/ha: 100%
chickweed; 16 g ai/ha
  Plant response rating, Chickweed: 98
chickweed; 31 g ai/ha
  Plant response rating, Chickweed: 98
chickweed; 62 g ai/ha
  Plant response rating, Chickweed: 100
chickweed; 125 g ai/ha
  Plant response rating, Chickweed: 100
chickweed; 250 g ai/ha
  Plant response rating, Chickweed: 100
dayflower; 16 g ai/ha
  Plant response rating, Dayflower, VA: 90
dayflower; 31 g ai/ha
  Plant response rating, Dayflower, VA: 95
dayflower; 62 g ai/ha
  Plant response rating, Dayflower, VA: 98
dayflower; 125 g ai/ha
  Plant response rating, Dayflower, VA: 100
dayflower; 250 g ai/ha
  Plant response rating, Dayflower, VA: 100
lambsquarters; 16 g ai/ha, scale 0-100, read-out: Plant response rating, Lambsquarters
  pest or weed control at 16 g/ha: 75%
lambsquarters; 31 g ai/ha, scale 0 to 100 (0 no effect, 100 complete control), read-out: Plant response rating, Lambsquarters
  pest or weed control at 31 g/ha: 80%
lambsquarters; 62 g ai/ha, scale 0 to 100 (0 no effect, 100 complete control), read-out: Plant response rating, Lambsquarters
  pest or weed control at 62 g/ha: 95%
lambsquarters; 125 g ai/ha, scale 0 to 100 (0 no effect, 100 complete control), read-out: Plant response rating, Lambsquarters
  pest or weed control at 125 g/ha: 95%
canarygrass; 16 g ai/ha, scale 0 (no effect) to 100 (complete control), read-out: Plant response rating, Canarygrass
  pest or weed control at 16 g/ha: 20%
canarygrass; 31 g ai/ha, scale 0-100, read-out: Plant response rating, Canarygrass
  pest or weed control at 31 g/ha: 20%
canarygrass; 62 g ai/ha, scale 0-100, read-out: Plant response rating, Canarygrass
  pest or weed control at 62 g/ha: 60%
canarygrass; 125 g ai/ha, scale 0-100, read-out: Plant response rating, Canarygrass
  pest or weed control at 125 g/ha: 85%
chamomile; 16 g ai/ha, scale 0-100, read-out: Plant response rating, Chamomile
  pest or weed control at 16 g/ha: 5%
chamomile; 31 g ai/ha, scale 0 to 100 (0 no effect, 100 complete control), read-out: Plant response rating, Chamomile
  pest or weed control at 31 g/ha: 10%
chamomile; 62 g ai/ha, scale 0 to 100 (0 no effect, 100 complete control), read-out: Plant response rating, Chamomile
  pest or weed control at 62 g/ha: 25%
chamomile; 125 g ai/ha, scale 0 to 100 (0 no effect, 100 complete control), read-out: Plant response rating, Chamomile
  pest or weed control at 125 g/ha: 25%
ragweed; 16 g ai/ha
  Plant response rating, Ragweed: 30
ragweed; 31 g ai/ha
  Plant response rating, Ragweed: 30
ragweed; 62 g ai/ha
  Plant response rating, Ragweed: 30
ragweed; 125 g ai/ha
  Plant response rating, Ragweed: 70
ragweed; 250 g ai/ha
  Plant response rating, Ragweed: 100
Italian ryegrass; 16 g ai/ha
  Plant response rating, Ryegrass, Italian: 35
Italian ryegrass; 31 g ai/ha
  Plant response rating, Ryegrass, Italian: 40
Italian ryegrass; 62 g ai/ha
  Plant response rating, Ryegrass, Italian: 70
Italian ryegrass; 125 g ai/ha
  Plant response rating, Ryegrass, Italian: 75
Italian ryegrass; 250 g ai/ha
  Plant response rating, Ryegrass, Italian: 100
Wild poinsettia; 16 g ai/ha
  Plant response rating, Poinsettia, Wild: 5
Wild poinsettia; 31 g ai/ha
  Plant response rating, Poinsettia, Wild: 10
Wild poinsettia; 62 g ai/ha
  Plant response rating, Poinsettia, Wild: 70
Wild poinsettia; 125 g ai/ha
  Plant response rating, Poinsettia, Wild: 95
Wild poinsettia; 250 g ai/ha
  Plant response rating, Poinsettia, Wild: 100
Leafy spurge; 16 g ai/ha
  Plant response rating, Leafy Spurge: 100
Leafy spurge; 31 g ai/ha
  Plant response rating, Leafy Spurge: 98
Leafy spurge; 62 g ai/ha
  Plant response rating, Leafy Spurge: 100
Leafy spurge; 125 g ai/ha
  Plant response rating, Leafy Spurge: 100
Leafy spurge; 250 g ai/ha
  Plant response rating, Leafy Spurge: 100
Wild radish; 16 g ai/ha, scale 0-100, read-out: Plant response rating, Radish, Wild
  pest or weed control at 16 g/ha: 70%
Wild radish; 31 g ai/ha, scale 0 to 100 (0 no effect, 100 complete control), read-out: Plant response rating, Radish, Wild
  pest or weed control at 31 g/ha: 70%
Wild radish; 62 g ai/ha, scale 0 to 100 (0 no effect, 100 complete control), read-out: Plant response rating, Radish, Wild
  pest or weed control at 62 g/ha: 70%
Wild radish; 125 g ai/ha, scale 0 to 100 (0 no effect, 100 complete control), read-out: Plant response rating, Radish, Wild
  pest or weed control at 125 g/ha: 90%
Blackgrass [1]; 16 g ai/ha, scale 0 (no effect) to 100 (complete control), read-out: Plant response rating, Blackgrass
  pest or weed control at 16 g/ha: 10%
Blackgrass [1]; 31 g ai/ha, scale 0-100, read-out: Plant response rating, Blackgrass
  pest or weed control at 31 g/ha: 30%
Blackgrass [1]; 62 g ai/ha, scale 0-100, read-out: Plant response rating, Blackgrass
  pest or weed control at 62 g/ha: 70%
Blackgrass [1]; 125 g ai/ha, scale 0-100, read-out: Plant response rating, Blackgrass
  pest or weed control at 125 g/ha: 95%
Field violet; 31 g ai/ha
  pest or weed control at 31 g/ha: 75%
Field violet; 62 g ai/ha
  pest or weed control at 62 g/ha: 70%
Field violet; 125 g ai/ha
  pest or weed control at 125 g/ha: 85%
nutsedge, purple; 16 g ai/ha
  Plant response rating, Nutsedge, Purple: 35
nutsedge, purple; 31 g ai/ha
  Plant response rating, Nutsedge, Purple: 50
nutsedge, purple; 62 g ai/ha
  Plant response rating, Nutsedge, Purple: 65
nutsedge, purple; 125 g ai/ha
  Plant response rating, Nutsedge, Purple: 85
nutsedge, purple; 250 g ai/ha
  Plant response rating, Nutsedge, Purple: 98
Blackgrass [2]; 62 g ai/ha
  pest or weed control at 62 g/ha: 20%
Blackgrass [2]; 16 g ai/ha
  pest or weed control at 16 g/ha: 10%
Blackgrass [2]; 31 g ai/ha
  pest or weed control at 31 g/ha: 15%
Blackgrass [2]; 125 g ai/ha
  pest or weed control at 125 g/ha: 30%
